# Experimental data as given in ChEMBL document CHEMBL5365493 (J Med Chem, 2023).
# How the values were obtained:
# Dipeptidyl peptidase 9 = Dipeptidyl peptidase 9 (Homo sapiens, UniProt Q86TI2); experiment: Inhibition of N-terminal human recombinant DPP9 expressed in Sf9 insect cells using Ala-Pro-paranitroanilide as substrate incubated for 15 mins by […]
# Dipeptidyl peptidase 8 = Dipeptidyl peptidase 8 (Homo sapiens, UniProt Q6V1X1); experiment: Inhibition of N-terminal human recombinant DPP8 expressed in Sf9 insect cells using Ala-Pro-paranitroanilide as substrate incubated for 15 mins by […]
# Dipeptidyl peptidase 4 = Dipeptidyl peptidase 4 (Homo sapiens, UniProt P27487); experiment: Inhibition of human seminal plasma DPP4 using Ala-Pro-paranitroanilide as substrate incubated for 15 mins by […]; assay type: cell-free
# Dipeptidyl peptidase 2 = Dipeptidyl peptidase 2 (Homo sapiens, UniProt Q9UHL4); experiment: Inhibition of human recombinant DPP2 using Lys-Ala-pNA as substrate incubated for 15 mins by […]
# Prolyl endopeptidase = molecular target: T1, Prolyl endopeptidase (Homo sapiens, UniProt P48147); experiment: Inhibition of human recombinant PREP expressed in Escherichia coli BL21(DE3) using N-succinyl-Gly-Pro-AMC as substrate incubated for 15 mins by fluorescence based analysis
# T1 sequence (P48147 whole entry): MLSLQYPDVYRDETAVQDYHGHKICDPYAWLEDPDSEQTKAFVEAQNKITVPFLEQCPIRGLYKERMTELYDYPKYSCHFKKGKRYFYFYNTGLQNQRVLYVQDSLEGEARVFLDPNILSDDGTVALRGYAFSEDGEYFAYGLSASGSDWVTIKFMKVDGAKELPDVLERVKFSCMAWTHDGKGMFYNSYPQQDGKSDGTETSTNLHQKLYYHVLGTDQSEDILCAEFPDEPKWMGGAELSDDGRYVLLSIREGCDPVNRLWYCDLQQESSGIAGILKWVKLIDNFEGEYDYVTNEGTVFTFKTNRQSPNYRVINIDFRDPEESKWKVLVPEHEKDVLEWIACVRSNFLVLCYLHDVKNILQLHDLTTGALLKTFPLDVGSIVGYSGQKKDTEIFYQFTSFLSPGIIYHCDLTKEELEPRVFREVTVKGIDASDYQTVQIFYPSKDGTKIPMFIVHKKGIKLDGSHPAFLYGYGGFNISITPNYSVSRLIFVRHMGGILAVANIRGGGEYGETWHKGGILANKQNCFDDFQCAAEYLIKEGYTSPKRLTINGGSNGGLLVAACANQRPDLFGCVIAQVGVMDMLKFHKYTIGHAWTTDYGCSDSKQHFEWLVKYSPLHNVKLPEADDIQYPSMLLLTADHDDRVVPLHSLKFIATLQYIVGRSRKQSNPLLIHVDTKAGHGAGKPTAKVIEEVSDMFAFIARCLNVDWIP
# Sequence of Dipeptidyl peptidase 9 (Q86TI2 whole entry): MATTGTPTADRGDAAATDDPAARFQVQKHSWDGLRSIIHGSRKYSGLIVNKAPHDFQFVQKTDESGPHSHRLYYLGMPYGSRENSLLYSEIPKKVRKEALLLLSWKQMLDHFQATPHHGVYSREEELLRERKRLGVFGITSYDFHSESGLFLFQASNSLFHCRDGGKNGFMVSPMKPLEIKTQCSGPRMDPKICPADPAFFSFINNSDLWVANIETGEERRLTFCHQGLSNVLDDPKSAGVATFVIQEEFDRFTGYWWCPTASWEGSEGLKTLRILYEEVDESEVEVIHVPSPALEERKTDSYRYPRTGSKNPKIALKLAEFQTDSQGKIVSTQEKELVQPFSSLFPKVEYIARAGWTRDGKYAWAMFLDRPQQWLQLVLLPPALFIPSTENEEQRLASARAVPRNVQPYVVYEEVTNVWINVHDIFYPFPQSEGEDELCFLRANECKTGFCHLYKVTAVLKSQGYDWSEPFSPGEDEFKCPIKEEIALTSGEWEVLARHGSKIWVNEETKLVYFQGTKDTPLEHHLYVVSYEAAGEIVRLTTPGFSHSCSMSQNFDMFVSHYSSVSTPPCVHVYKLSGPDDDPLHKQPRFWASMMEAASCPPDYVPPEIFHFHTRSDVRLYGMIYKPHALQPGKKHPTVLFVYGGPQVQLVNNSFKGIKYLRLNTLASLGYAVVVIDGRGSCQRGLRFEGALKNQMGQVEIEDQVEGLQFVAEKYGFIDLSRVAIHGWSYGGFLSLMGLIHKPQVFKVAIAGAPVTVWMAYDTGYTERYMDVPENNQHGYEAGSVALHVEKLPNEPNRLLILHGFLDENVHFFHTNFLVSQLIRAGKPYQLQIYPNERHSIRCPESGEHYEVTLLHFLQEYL
# Sequence of Dipeptidyl peptidase 8 (Q6V1X1 whole entry): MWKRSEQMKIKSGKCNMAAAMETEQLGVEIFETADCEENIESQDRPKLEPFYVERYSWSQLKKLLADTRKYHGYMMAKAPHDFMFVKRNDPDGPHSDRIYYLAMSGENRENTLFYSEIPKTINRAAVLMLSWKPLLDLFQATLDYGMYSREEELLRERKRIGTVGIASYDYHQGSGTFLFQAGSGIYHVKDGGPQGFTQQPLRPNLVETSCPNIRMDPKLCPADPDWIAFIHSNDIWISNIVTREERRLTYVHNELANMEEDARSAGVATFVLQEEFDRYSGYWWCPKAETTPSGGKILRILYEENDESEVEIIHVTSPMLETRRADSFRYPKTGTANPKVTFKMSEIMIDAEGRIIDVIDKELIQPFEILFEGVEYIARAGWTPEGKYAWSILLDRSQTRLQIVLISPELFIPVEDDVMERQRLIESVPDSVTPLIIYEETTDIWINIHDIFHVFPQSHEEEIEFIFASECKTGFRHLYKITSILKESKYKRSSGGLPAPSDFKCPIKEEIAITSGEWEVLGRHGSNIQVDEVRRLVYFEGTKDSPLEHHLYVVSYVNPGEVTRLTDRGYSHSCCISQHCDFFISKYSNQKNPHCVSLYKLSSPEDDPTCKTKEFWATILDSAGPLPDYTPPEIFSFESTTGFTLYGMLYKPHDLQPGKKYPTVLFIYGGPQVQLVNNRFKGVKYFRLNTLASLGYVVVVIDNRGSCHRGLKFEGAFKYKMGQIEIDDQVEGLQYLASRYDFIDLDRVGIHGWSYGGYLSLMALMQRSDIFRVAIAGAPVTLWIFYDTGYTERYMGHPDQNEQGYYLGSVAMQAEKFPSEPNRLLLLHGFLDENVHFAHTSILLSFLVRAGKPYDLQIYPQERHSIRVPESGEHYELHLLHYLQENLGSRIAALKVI
# Sequence of Dipeptidyl peptidase 4 (P27487 whole entry): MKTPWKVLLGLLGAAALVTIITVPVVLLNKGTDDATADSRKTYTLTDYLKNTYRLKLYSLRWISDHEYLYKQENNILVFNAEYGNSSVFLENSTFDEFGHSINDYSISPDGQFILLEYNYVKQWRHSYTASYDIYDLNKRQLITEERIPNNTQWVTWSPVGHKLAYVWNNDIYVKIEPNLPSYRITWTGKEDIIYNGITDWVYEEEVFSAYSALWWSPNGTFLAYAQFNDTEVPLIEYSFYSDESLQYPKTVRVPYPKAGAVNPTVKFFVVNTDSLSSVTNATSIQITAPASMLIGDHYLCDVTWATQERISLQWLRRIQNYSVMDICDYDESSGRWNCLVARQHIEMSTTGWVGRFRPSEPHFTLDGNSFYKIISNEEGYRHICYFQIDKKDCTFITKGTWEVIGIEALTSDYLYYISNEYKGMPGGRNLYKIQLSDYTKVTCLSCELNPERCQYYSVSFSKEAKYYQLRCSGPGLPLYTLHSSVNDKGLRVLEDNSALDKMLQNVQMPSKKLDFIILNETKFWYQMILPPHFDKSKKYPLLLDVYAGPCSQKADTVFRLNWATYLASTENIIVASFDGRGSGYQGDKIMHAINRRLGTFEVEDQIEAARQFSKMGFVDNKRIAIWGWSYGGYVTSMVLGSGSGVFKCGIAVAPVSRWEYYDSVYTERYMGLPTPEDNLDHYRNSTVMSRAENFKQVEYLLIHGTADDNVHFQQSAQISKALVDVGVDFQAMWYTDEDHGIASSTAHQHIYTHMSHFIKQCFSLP
SMILES,IC50 (Dipeptidyl peptidase 9) [µM],IC50 (Dipeptidyl peptidase 8) [µM],IC50 (Dipeptidyl peptidase 4) [µM],IC50 (Dipeptidyl peptidase 2) [µM],IC50 (Prolyl endopeptidase) [µM]
NC12CC3CC(C1)CC(NCC(=O)N1Cc4ccccc4C1)(C3)C2,0.91,6,> 10,> 5,> 10
O=C(NC12CC3CC(CC(O)(C3)C1)C2)OC12CC3CC(CC(NCC(=O)N4Cc5ccccc5C4)(C3)C1)C2,0.17,0.89,> 10,> 5,> 10
O=C(NCc1ccccc1)NC12CC3CC(CC(NCC(=O)N4Cc5ccccc5C4)(C3)C1)C2,0.04,–,> 10,> 5,> 10
CCC(C)(C)NC(=O)OC12CC3CC(CC(NCC(=O)N4Cc5ccccc5C4)(C3)C1)C2,0.4,5,> 10,> 5,> 10
CC(C)(C)NC(=O)OC12CC3CC(CC(NCC(=O)N4Cc5ccccc5C4)(C3)C1)C2,0.169,2.6,> 10,> 5,> 10
O=C(CC12CC3CC(CC(O)(C3)C1)C2)NC12CC3CC(CC(NCC(=O)N4Cc5ccccc5C4)(C3)C1)C2,0.5,4.6,> 10,> 5,> 10
O=C(NC12CC3CC(C1)CC(OCc1ccc(F)cc1F)(C3)C2)OC12CC3CC(CC(NCC(=O)N4Cc5ccccc5C4)(C3)C1)C2,0.02,0.12,> 10,> 5,> 10
NCCCN1CCN(CCCNC(=O)OC23CC4CC(CC(NCC(=O)N5Cc6ccccc6C5)(C4)C2)C3)CC1,1.7,2.3,> 10,> 5,> 10
CC(C)[C@H](NC12CC3CC(CC(N)(C3)C1)C2)C(=O)N1Cc2ccccc2C1,> 10,> 10,> 10,> 5,> 10
NC12CC3CC(C1)CC(NCC(=O)N1Cc4ccc(F)cc4C1)(C3)C2,–,–,> 10,> 5,> 10
O=C(NC12CC3CC(CC(C3)C1)C2)NC12CC3CC(CC(NCC(=O)N4Cc5ccccc5C4)(C3)C1)C2,–,–,> 10,> 5,> 10
CC(C)CCNC(=O)OC12CC3CC(CC(NCC(=O)N4Cc5ccccc5C4)(C3)C1)C2,0.33,2.1,> 10,> 5,> 10
O=C(NC12CC3CC(CC(NCC(=O)N4Cc5ccccc5C4)(C3)C1)C2)OCC1c2ccccc2-c2ccccc21,0.16,1,> 10,> 5,> 10
O=C(NCc1ccc(F)cc1F)OC12CC3CC(CC(NCC(=O)N4Cc5ccccc5C4)(C3)C1)C2,–,0.8,> 10,> 5,> 10
O=C(CNC12CC3CC(C1)CC(NC(=O)C14CC5CC(CC(C5)C1)C4)(C3)C2)N1Cc2ccccc2C1,0.19,6,> 10,> 5,> 10
O=C(NCCCCO)OC12CC3CC(CC(NCC(=O)N4Cc5ccccc5C4)(C3)C1)C2,0.2,–,> 10,> 5,> 10
CC(C)(C)NC(=O)NC12CC3CC(CC(NCC(=O)N4Cc5cc(F)c(F)cc5C4)(C3)C1)C2,–,1.3,> 10,> 5,> 10
O=C(NCc1ccccc1)OC12CC3CC(CC(NCC(=O)N4Cc5ccccc5C4)(C3)C1)C2,0.07,–,> 10,> 5,> 10
CC(C)(C)OC(=O)NC12CC3CC(CC(NCC(=O)N4Cc5ccccc5C4)(C3)C1)C2,–,–,> 10,> 5,> 10

# Further lines, results first:
IC50 (Dipeptidyl peptidase 9) [µM],IC50 (Dipeptidyl peptidase 8) [µM],IC50 (Dipeptidyl peptidase 4) [µM],IC50 (Dipeptidyl peptidase 2) [µM],IC50 (Prolyl endopeptidase) [µM],SMILES
1.1,3.5,> 10,> 5,> 10,CC(C)(C)C(=O)NC12CC3CC(CC(NCC(=O)N4Cc5ccccc5C4)(C3)C1)C2
0.06,0.17,> 10,> 5,> 10,NCCNC(=O)OC12CC3CC(CC(NCC(=O)N4Cc5ccccc5C4)(C3)C1)C2
0.014,–,> 10,> 5,> 10,O=C(NC(c1ccccc1)c1ccccc1)OC12CC3CC(CC(NCC(=O)N4Cc5ccccc5C4)(C3)C1)C2
–,–,> 10,> 5,> 10,O=C(NC(c1ccc(F)cc1)c1ccc(F)cc1)OC12CC3CC(CC(NCC(=O)N4Cc5ccccc5C4)(C3)C1)C2
0.41,1.2,> 10,> 5,> 10,O=C(NCCF)OC12CC3CC(CC(NCC(=O)N4Cc5ccccc5C4)(C3)C1)C2
2.6,> 10,> 10,> 5,> 10,CC(C)(OC(=O)NC12CC3CC(CC(NCC(=O)N4Cc5ccccc5C4)(C3)C1)C2)C(Cl)(Cl)Cl
–,> 10,> 10,> 5,> 10,CCCCNC12CC3CC(C1)CC(NCC(=O)N1Cc4ccccc4C1)(C3)C2
0.05,–,> 10,> 5,> 10,CC(C)(C)NC(=O)NC12CC3CC(CC(NCC(=O)N4Cc5ccccc5C4)(C3)C1)C2
1.8,6,> 10,> 5,> 10,CC(C)(C)OC(=O)N[C@@H](Cc1ccccc1)C(=O)NC12CC3CC(CC(NCC(=O)N4Cc5ccccc5C4)(C3)C1)C2
–,–,> 10,> 5,> 10,O=C(N[C@H]1CC[C@H](O)CC1)OC12CC3CC(CC(NCC(=O)N4Cc5ccccc5C4)(C3)C1)C2
0.13,1.1,> 10,> 5,> 10,CCCCNC(=O)OC12CC3CC(CC(NCC(=O)N4Cc5ccccc5C4)(C3)C1)C2
–,–,> 10,> 5,> 10,O=C(NCCCc1ccccc1)OC12CC3CC(CC(NCC(=O)N4Cc5ccccc5C4)(C3)C1)C2
–,–,> 10,> 5,> 5,N#Cc1ccc(CCC(=O)NC23CC4CC(CC(NCC(=O)N5Cc6ccccc6C5)(C4)C2)C3)cc1
0.055,0.34,> 10,> 5,> 10,O=C(CNC12CC3CC(C1)CC(NCC(=O)N1Cc4ccccc4C1)(C3)C2)N1Cc2ccccc2C1
0.4,3.1,> 10,> 5,> 10,CC(C)(C)COC(=O)NC12CC3CC(CC(NCC(=O)N4Cc5ccccc5C4)(C3)C1)C2
–,–,> 10,> 5,> 10,O=C(NCc1ccncc1)OC12CC3CC(CC(NCC(=O)N4Cc5ccccc5C4)(C3)C1)C2
> 10,> 10,> 10,> 5,> 10,CC(C)[C@H](NC12CC3CC(CC(NC(=O)OC(C)(C)C)(C3)C1)C2)C(=O)N1Cc2ccccc2C1
0.04,1.2,> 10,> 5,> 10,O=C(CNC12CC3CC(C1)CC(NC(=O)C14CC5CC(CC(C5)C1)C4)(C3)C2)N1Cc2ccc(F)cc2C1
